Assay results taken from patent US20230069712A1, “COMPOUNDS FOR THE INDUCTION OF ANTIGEN-SPECIFIC IMMUNE TOLERANCE” (Anokion SA, priority 2019, published 2023).
No end group written: not given here.

Tested on: multiple sclerosis pathology (EAE disease)
Assay: Mouse experimental autoimmune encephalomyelitis (EAE) model
Format: in vivo, mice
Details: intravenous injection on day 0, 3, and 6; adoptive transfer of MOG35-55-reactive T cells
Text: Myelin oligodendrocyte glycoprotein (MOG) 30-60 is a fragment of an autoantigen that is associated with multiple sclerosis that is used herein as a non-limiting example of an immunogenic fragment of MOG. […] To induce multiple sclerosis pathology (EAE disease), recipient mice were adoptively transferred on day 0 with MOG35-55-reactive T cells obtained from a separate, previously-vaccinated donor mouse. On day 0, 3, and 6, mice received via intravenous injection of either MOG30-60 peptide, MOG-30-60 peptide chemically conjugated to pGal (LT-MOG-30-60), or saline; an additional control group received administrations of a monoclonal antibody that binds VLA-4 (integrin alpha 4 beta 1). Multiple sclerosis pathology was assessed and scored daily by a pharmacology expert blinded to group identities. […] It shall be appreciated that, according to additional embodiments disclosed herein, other immunogenic fragments of MOG are effective in inducing tolerance to MOG, and thus treatment of MS.

Q: Which “protection from multiple sclerosis pathology (EAE disease), daily score” value does the source give for “MOG30-60: Myelin oligodendrocyte glycoprotein (MOG) 30-60 peptide, SEQ ID NO: 30, administered alone (KNATGMEVGWYRSPFSRVVHLYRNGKDQDAE; MOG 30-60; listed as Homo sapiens)” here?
A: The value was “not substantively protected from disease”.

Q: For “pGal-MOG30-60: MOG-30-60 peptide chemically conjugated to pGal (e.g., Polymer B) (KNATGMEVGWYRSPFSRVVHLYRNGKDQDAE; also: chemically conjugated to pGal polymer (e.g. Polymer B), site not given here; UniProt Q61885 58-88, looked up, fragment)”, which “protection from multiple sclerosis pathology (EAE disease), daily score” value is on record?
A: Its value is “protected from multiple sclerosis pathology (EAE disease)”.
